Here are results for six molecules from patent publication EP0590998A1, “1-Styryl-3-t-butyl-1,3-propanedione derivative and external preparation for skin using the same” (SHISEIDO COMPANY LIMITED, priority 1992, dated 1994).

Data set [1] in a line: Solubility of the 10% compounds in silicone base and squalane at room temperature. The format is physicochemical. Details: key: The compounds which can completely be dissolved in the solvents are indicated as ○. The following applies: room temperature (25°C); for SOLUBILITY SILICONE KF56(10%): 10% compound in SILICONE KF56 (10cs); for SOLUBILITY SQUALANE(10%): 10% compound in squalane. The source says:
Solubilities of the following compounds 1 to 5 as examples of the 1-styryl-3-t-butyl-1,3-propanedione derivative and 2-hydroxy-4-methoxybenzophenone as a comparison are examined using the SILICONE KF56 (10cs; SHINETHU KACAKU INC.) as silicone base and squalane. Compound 1 : 1-styryl-3-t-butyl 1,3-propanedione Compound 2 : 1-p-methoxystyryl-3-t-butyl 1,3-propanedione Compound 3 : 1-p-(2-ethylhexyloxy)styryl-3-t-butyl 1,3-propanedione Compound 4 : 1-p-ethylstyryl-3-t-butyl1,3-propanedione compound 5 : 1-m-methylstyryl-3-t-butyl1,3-propanedione
The compounds which can completely be dissolved in the solvents are indicated as ○.

The nature of data set [2]: Ultraviolet ray absorption, spectrophotometer, 10ppm in ethanol. The data set is classed as physicochemical. Set-up: key: absorbance of 10 ppm ethanol solution, 10 mm quartz cell. The following applies: 10ppm in ethanol (99.5%), quartz cell 10mm×10mm. On the procedure: Ultraviolet ray absorptivities of the compound 1,3,5 and comparison (2-hydroxy-4-methoxybenzophenone; UV-A absorbent) were measured according to the following method.
The compound 1,3,5 and the comparison compound were dissolved in ethanol (99.5%) so as to the concentration being 10ppm, and absorption were measured by using quartz cell (10mm×10mm) and the spectrophotometer UVIDEC-610 (JASCO CORPORATION).

`COc1ccc(C(=O)c2ccccc2)c(O)c1` [COMPARISON 1, 2-hydroxy-4-methoxybenzophenone, reference compound]: in data set [1], the “SOLUBILITY SILICONE KF56(10%)” value is “DEPOSITION” and the “SOLUBILITY SQUALANE(10%)” value was “DEPOSITION”.

Regarding `CC(C)(C)C(=O)CC(=O)C=Cc1ccccc1` [Compound 1, 1-styryl-3-t-butyl 1,3-propanedione], in data set [1], the “SOLUBILITY SILICONE KF56(10%)” value is “○”. Besides, in data set [1], the “SOLUBILITY SQUALANE(10%)” value was “○”. Moreover, the absorption in data set [2] (WAVELENGTH 300) worked out at 0.60; in data set [2] (WAVELENGTH 310), 0.82; in data set [2] (WAVELENGTH 320), 1.08; in data set [2] (WAVELENGTH 330), 1.33; in data set [2] (WAVELENGTH 340) it was 1.40; in data set [2] (WAVELENGTH 350), 1.24. Moreover, the values for the absorption in data set [2] (WAVELENGTH 360), in data set [2] (WAVELENGTH 370) and in data set [2] (WAVELENGTH 380) were 0.96, 0.50 and 0.26, respectively.

As for `COc1ccc(C=CC(=O)CC(=O)C(C)(C)C)cc1` [Compound 2, 1-p-methoxystyryl-3-t-butyl 1,3-propanedione], in data set [1], the “SOLUBILITY SILICONE KF56(10%)” value was “○” and the “SOLUBILITY SQUALANE(10%)” value is “○”.

In the case of `CCCCC(CC)COc1ccc(C=CC(=O)CC(=O)C(C)(C)C)cc1` (stereo not drawn) [Compound 3, 1-p-(2-ethylhexyloxy)styryl-3-t-butyl 1,3-propanedione], in data set [1], the “SOLUBILITY SILICONE KF56(10%)” value was “○”. Further, in data set [1], the “SOLUBILITY SQUALANE(10%)” value was “○”. The absorption is 0.20 in data set [2] (WAVELENGTH 300); 0.28 in data set [2] (WAVELENGTH 310); 0.40 in data set [2] (WAVELENGTH 320); 0.56 in data set [2] (WAVELENGTH 330); 0.76 in data set [2] (WAVELENGTH 340); 0.92 in data set [2] (WAVELENGTH 350). In addition, the absorption in data set [2] (WAVELENGTH 360) amounted to 0.97; in data set [2] (WAVELENGTH 370), 0.89; in data set [2] (WAVELENGTH 380) it was 0.65.

On to `CCc1ccc(C=CC(=O)CC(=O)C(C)(C)C)cc1` [Compound 4, 1-p-ethylstyryl-3-t-butyl1,3-propanedione], for which, in data set [1], the “SOLUBILITY SILICONE KF56(10%)” value was “○” and the “SOLUBILITY SQUALANE(10%)” value is given as “○”.

Turning to `Cc1cccc(C=CC(=O)CC(=O)C(C)(C)C)c1` [Compound 5, 1-m-methylstyryl-3-t-butyl1,3-propanedione], in data set [1], the “SOLUBILITY SILICONE KF56(10%)” value is given as “○”. Moreover, the “SOLUBILITY SQUALANE(10%)” value in data set [1] is reported as “○”. For the same molecule, the absorption in data set [2] (WAVELENGTH 300) is 0.50; in data set [2] (WAVELENGTH 310), 0.72; in data set [2] (WAVELENGTH 320), 1.00; in data set [2] (WAVELENGTH 330), 1.26; in data set [2] (WAVELENGTH 340) it was 1.36; in data set [2] (WAVELENGTH 350), 1.24. Besides, the results for the absorption in data set [2] (WAVELENGTH 360), in data set [2] (WAVELENGTH 370) and in data set [2] (WAVELENGTH 380) were 0.98, 0.54 and 0.32, respectively.
